Assay results reported in article PMC9841523 (Journal of Medicinal Chemistry, 2022).

What was measured:
[1] = molecular target: T1, M1(h) (antagonist radioligand) (Homo sapiens, UniProt P11229); assay: Eurofins Safety Screen 44; assay type: binding; settings: read-out: % Inhibition of Control Values
T1 construct: purchased ActivX Biosciences (KiNativ)

hERG potassium channel = hERG potassium channel (Homo sapiens, UniProt Q12809); assay: Eurofins Safety Screen 44; settings: probe [3H] Dofetilide
[2] = molecular target: T2, 5-HT2A(h) (agonist radioligand) (Homo sapiens, UniProt P28223); assay: Eurofins Safety Screen 44; assay type: binding; settings: read-out: % Inhibition of Control Values
T2 construct: purchased ActivX Biosciences (KiNativ)

[3] = system: NMDA (antagonist radioligand); assay: Eurofins Safety Screen 44; assay type: binding; settings: 10 µM
[4] = molecular target: T3, α2A(h) (antagonist radioligand) (Homo sapiens, UniProt P08913); assay: Eurofins Safety Screen 44; assay type: binding; settings: read-out: % Inhibition of Control Values
T3 construct: purchased ActivX Biosciences (KiNativ)

[5] = molecular target: T4, β1(h) (agonist radioligand) (Homo sapiens, UniProt P08588); assay: Eurofins Safety Screen 44; assay type: binding; settings: read-out: % Inhibition of Control Values
T4 construct: purchased ActivX Biosciences (KiNativ)

[6] = molecular target: T5, V1a(h) (agonist radioligand) (Homo sapiens, UniProt P37288); assay: Eurofins Safety Screen 44; assay type: binding; settings: read-out: % Inhibition of Control Values
T5 construct: purchased ActivX Biosciences (KiNativ)

[7] = molecular target: T6, norepinephrine transporter(h) (antagonist radioligand) (Homo sapiens, UniProt P23975); assay: Eurofins Safety Screen 44; assay type: binding; settings: read-out: % Inhibition of Control Values
T6 construct: purchased ActivX Biosciences (KiNativ)

PDE4D2 (h) = molecular target: T7, PDE4D2 (h) (Homo sapiens, UniProt Q08499); assay: Eurofins Safety Screen 44; assay type: biochemical; settings: read-out: % Inhibition of Control Values
T7 construct: Eurofins (ran the panel)

[8] = molecular target: T8, M2 (h) (antagonist radioligand) (Homo sapiens, UniProt P08172); assay: Eurofins Safety Screen 44; assay type: binding; settings: read-out: % Inhibition of Control Values
T8 construct: purchased ActivX Biosciences (KiNativ)

[9] = molecular target: T9, dopamine transporter(h) (antagonist radioligand) (Homo sapiens, UniProt Q01959); assay: Eurofins Safety Screen 44; assay type: binding; settings: read-out: % Inhibition of Control Values
T9 construct: Eurofins (ran the panel)

[10] = molecular target: T10, β2(h) (antagonist radioligand) (Homo sapiens, UniProt P07550); assay: Eurofins Safety Screen 44; assay type: binding; settings: read-out: % Inhibition of Control Values
T10 construct: purchased ActivX Biosciences (KiNativ)

[11] = molecular target: T11, H2(h) (antagonist radioligand) (Homo sapiens, UniProt P25021); assay: Eurofins Safety Screen 44; assay type: binding; settings: read-out: % Inhibition of Control Values
T11 construct: purchased ActivX Biosciences (KiNativ)

[12] = molecular target: T12, 5-HT1B (h) (antagonist radioligand) (Homo sapiens, UniProt P28222); assay: Eurofins Safety Screen 44; assay type: binding; settings: read-out: % Inhibition of Control Values
T12 construct: purchased ActivX Biosciences (KiNativ)

[13] = molecular target: T13, 5-HT1A(h) (agonist radioligand) (Homo sapiens, UniProt P08908); assay: Eurofins Safety Screen 44; assay type: binding; settings: read-out: % Inhibition of Control Values
T13 construct: purchased ActivX Biosciences (KiNativ)

[14] = molecular target: T14, 5-HT transporter (h) (antagonist radioligand) (Homo sapiens, UniProt P31645); assay: Eurofins Safety Screen 44; assay type: binding; settings: read-out: % Inhibition of Control Values
T14 construct: Eurofins (ran the panel)

[15] = system: AR (h) (agonist radioligand); assay: Eurofins Safety Screen 44; assay type: binding, human; settings: 10 µM
[16] = molecular target: T15, δ (DOP) (h) (agonist radioligand) (Homo sapiens, UniProt P41143); assay: Eurofins Safety Screen 44; assay type: binding; settings: read-out: % Inhibition of Control Values
T15 construct: purchased ActivX Biosciences (KiNativ)

[17] = molecular target: T16, N neuronal α4β2 (h) (agonist radioligand) (Homo sapiens, UniProt P17787+P43681); assay: Eurofins Safety Screen 44; assay type: binding; settings: read-out: % Inhibition of Control Values
T16 construct: purchased ActivX Biosciences (KiNativ)

[18] = system: Na+ channel (site 2) (antagonist radioligand); assay: Eurofins Safety Screen 44; assay type: binding; settings: 10 µM
acetylcholinesterase (h) = molecular target: T17, acetylcholinesterase (h) (Homo sapiens, UniProt P22303); assay: Eurofins Safety Screen 44; assay type: biochemical; settings: read-out: % Inhibition of Control Values
T17 construct: Eurofins (ran the panel)

Lck kinase (h) = molecular target: T18, Lck kinase (h) (Homo sapiens, UniProt P06239); assay: Eurofins Safety Screen 44; assay type: biochemical; settings: read-out: % Inhibition of Control Values
T18 construct: Eurofins (ran the panel)

[19] = system: Safety Screen 44 off-targets; assay: Eurofins Safety Screen 44, whole panel; settings: 10 µM
[20] = molecular target: T19, kappa (h) (KOP) (agonist radioligand) (Homo sapiens, UniProt P41145); assay: Eurofins Safety Screen 44; assay type: binding; settings: read-out: % Inhibition of Control Values
T19 construct: purchased ActivX Biosciences (KiNativ)

[21] = system: BZD (central) (agonist radioligand); assay: Eurofins Safety Screen 44; assay type: binding; settings: 10 µM
[22] = molecular target: T20, D2S(h) (agonist radioligand) (Homo sapiens, UniProt P14416); assay: Eurofins Safety Screen 44; assay type: binding; settings: read-out: % Inhibition of Control Values
T20 construct: purchased ActivX Biosciences (KiNativ)

[23] = molecular target: T21, MAO-A (antagonist radioligand) (Rattus norvegicus, UniProt P21396); assay: Eurofins Safety Screen 44; assay type: binding; settings: read-out: % Inhibition of Control Values
T21 construct: purchased ActivX Biosciences (KiNativ)

[24] = system: Ca2+ channel (L, dihydropyridine site) (antagonist radioligand); assay: Eurofins Safety Screen 44; assay type: binding; settings: 10 µM
[25] = system: KV channel (antagonist radioligand); assay: Eurofins Safety Screen 44; assay type: binding; settings: 10 µM
[26] = molecular target: T22, CB1(h) (agonist radioligand) (Homo sapiens, UniProt P21554); assay: Eurofins Safety Screen 44; assay type: binding; settings: read-out: % Inhibition of Control Values
T22 construct: purchased ActivX Biosciences (KiNativ)

[27] = molecular target: T23, D1(h) (antagonist radioligand) (Homo sapiens, UniProt P21728); assay: Eurofins Safety Screen 44; assay type: binding; settings: read-out: % Inhibition of Control Values
T23 construct: purchased ActivX Biosciences (KiNativ)

[28] = molecular target: T24, α1A(h) (antagonist radioligand) (Homo sapiens, UniProt P35348); assay: Eurofins Safety Screen 44; assay type: binding; settings: read-out: % Inhibition of Control Values
T24 construct: purchased ActivX Biosciences (KiNativ)

NCI-H2122 NSCLC CDX = NCI-H2122 NSCLC CDX model; assay type: in vivo; settings: RMC-6272 10 mg/kg ip once weekly; sotorasib 100 mg/kg po qd; single agents or combination
Procedure: groups when mean tumor volume reached 400–600 mm 3. Tumor and plasma samples were collected for PK and PD analysis at indicated time points after a single dose of indicated […]
doses. Everolimus was formulated in v/v/v/, 30/5/65 Propylene glycol/Tween 80/H 2O.
NCI-H2122 xenograft studies. Female Balb/c nude mice (Beijing V.R Biotechnology Co. […]
per inoculation. When mean tumor volume reached between 150–200 mm 3, mice were […]
Transcutol/Solutol HS 15/H 2O. Sotorasib (AMG 510) was administered by oral gavage at 100 mg/kg daily and formulated in 2% (w/v) HPMC E-50, 0.5% Tween 80 in 50 mM sodium citrate […]
In vivo pharmacodynamics. Snap frozen tumors collected were homogenized with MSD complete lysis buffer (as prepared according to Meso Scale Discovery kit protocol) using PreCellys Bead Shaker (Bertin Instruments) according to manufacturer's protocol. Phospho-4E-BP1(Thr37/46) Whole Cell Lysate Kit (Meso Scale Discovery) was used to quantify phosphorylation of 4E-BP1 in the tumors according to manufacturer's protocol.
Expression and purification of FKBP12, FRB domain, and RHEB-GTPγS. DNA pET28

Wnk1, Wnk2, Wnk4 = assay: KiNativ kinase panel; assay type: cell-based, human; settings: 1 μM; MCF-7 Cells; Activation Loop; IGDLGLATLKR

T21 sequence (P21396 whole entry): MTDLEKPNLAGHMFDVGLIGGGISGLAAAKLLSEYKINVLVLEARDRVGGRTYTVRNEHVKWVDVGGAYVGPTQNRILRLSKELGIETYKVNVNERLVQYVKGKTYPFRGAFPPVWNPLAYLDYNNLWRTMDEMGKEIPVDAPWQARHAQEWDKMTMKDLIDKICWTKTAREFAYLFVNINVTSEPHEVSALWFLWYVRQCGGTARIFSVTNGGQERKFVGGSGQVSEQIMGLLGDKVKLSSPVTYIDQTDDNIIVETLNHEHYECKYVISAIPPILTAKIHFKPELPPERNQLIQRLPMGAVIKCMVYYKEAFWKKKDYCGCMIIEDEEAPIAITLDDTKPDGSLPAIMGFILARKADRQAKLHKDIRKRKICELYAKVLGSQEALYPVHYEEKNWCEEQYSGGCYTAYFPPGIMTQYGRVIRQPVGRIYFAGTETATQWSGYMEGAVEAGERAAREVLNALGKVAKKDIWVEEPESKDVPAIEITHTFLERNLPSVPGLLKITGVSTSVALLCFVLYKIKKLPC
T8 sequence (P08172 whole entry): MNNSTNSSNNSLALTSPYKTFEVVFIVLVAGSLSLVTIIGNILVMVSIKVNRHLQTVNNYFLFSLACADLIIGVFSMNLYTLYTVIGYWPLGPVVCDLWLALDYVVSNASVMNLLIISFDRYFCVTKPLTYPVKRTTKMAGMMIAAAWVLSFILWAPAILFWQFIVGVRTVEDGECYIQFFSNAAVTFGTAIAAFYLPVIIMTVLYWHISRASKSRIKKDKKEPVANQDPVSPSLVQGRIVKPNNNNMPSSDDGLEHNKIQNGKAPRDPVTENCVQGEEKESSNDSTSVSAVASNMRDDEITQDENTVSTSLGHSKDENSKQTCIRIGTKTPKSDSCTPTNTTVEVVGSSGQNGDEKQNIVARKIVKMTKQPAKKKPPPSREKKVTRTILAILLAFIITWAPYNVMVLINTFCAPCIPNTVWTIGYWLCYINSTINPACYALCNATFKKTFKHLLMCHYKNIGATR
T9 sequence (Q01959 whole entry): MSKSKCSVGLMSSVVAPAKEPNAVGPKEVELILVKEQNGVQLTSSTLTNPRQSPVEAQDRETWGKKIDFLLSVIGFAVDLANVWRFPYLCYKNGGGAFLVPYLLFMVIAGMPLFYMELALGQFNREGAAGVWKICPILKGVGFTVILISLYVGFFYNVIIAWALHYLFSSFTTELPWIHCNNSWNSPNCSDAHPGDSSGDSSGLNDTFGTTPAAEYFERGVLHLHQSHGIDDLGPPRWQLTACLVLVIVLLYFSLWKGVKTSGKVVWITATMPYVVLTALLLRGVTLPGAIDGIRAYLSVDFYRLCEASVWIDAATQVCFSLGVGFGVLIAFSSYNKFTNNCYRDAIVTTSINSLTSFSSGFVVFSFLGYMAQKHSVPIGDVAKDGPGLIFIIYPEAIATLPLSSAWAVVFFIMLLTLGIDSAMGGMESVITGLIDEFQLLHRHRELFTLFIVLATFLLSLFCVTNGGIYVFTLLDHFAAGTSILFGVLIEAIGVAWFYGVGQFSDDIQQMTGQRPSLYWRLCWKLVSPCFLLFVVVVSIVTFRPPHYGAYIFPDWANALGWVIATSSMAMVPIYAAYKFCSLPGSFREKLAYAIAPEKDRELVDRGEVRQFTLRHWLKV
T6 sequence (P23975 whole entry): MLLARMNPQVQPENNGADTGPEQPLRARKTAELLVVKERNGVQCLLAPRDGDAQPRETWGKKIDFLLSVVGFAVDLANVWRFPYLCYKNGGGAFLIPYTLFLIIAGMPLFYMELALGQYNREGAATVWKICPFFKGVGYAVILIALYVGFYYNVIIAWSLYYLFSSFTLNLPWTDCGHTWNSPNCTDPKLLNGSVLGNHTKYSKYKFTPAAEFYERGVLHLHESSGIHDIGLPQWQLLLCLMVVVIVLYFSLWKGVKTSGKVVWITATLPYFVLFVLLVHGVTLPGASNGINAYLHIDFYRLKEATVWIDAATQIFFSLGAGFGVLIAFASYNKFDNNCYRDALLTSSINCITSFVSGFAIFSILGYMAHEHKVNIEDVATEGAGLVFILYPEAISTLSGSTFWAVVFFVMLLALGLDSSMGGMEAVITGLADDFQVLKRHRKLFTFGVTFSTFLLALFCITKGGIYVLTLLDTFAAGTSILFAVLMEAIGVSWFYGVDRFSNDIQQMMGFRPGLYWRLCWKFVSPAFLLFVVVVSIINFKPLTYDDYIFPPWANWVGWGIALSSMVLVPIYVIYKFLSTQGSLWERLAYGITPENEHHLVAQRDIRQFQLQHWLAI
T12 sequence (P28222 whole entry): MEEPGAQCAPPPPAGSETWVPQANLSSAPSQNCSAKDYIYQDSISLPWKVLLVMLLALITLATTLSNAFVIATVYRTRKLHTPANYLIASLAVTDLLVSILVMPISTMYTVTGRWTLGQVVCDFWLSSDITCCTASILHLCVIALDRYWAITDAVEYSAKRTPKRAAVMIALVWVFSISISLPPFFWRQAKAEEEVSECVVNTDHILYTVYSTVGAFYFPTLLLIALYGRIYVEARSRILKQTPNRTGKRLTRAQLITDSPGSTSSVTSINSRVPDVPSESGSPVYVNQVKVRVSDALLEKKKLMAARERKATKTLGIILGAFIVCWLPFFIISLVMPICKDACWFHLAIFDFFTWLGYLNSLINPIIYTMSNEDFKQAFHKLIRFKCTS
T17 sequence (P22303 32-614): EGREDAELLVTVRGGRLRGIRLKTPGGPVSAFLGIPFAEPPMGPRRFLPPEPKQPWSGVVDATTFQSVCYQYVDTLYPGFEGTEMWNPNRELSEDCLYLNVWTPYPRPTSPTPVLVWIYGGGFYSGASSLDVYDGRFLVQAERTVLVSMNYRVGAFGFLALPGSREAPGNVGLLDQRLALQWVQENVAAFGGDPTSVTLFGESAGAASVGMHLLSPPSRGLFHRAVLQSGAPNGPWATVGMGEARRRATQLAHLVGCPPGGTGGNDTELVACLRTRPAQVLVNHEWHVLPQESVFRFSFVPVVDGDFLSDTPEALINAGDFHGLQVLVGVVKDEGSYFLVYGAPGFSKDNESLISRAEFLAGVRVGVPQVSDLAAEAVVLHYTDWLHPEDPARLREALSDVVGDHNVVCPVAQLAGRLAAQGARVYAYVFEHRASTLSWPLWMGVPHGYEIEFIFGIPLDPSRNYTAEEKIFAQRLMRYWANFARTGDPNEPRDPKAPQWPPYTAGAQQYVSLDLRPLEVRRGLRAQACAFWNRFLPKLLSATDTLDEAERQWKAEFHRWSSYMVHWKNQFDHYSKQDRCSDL
T22 sequence (P21554 whole entry): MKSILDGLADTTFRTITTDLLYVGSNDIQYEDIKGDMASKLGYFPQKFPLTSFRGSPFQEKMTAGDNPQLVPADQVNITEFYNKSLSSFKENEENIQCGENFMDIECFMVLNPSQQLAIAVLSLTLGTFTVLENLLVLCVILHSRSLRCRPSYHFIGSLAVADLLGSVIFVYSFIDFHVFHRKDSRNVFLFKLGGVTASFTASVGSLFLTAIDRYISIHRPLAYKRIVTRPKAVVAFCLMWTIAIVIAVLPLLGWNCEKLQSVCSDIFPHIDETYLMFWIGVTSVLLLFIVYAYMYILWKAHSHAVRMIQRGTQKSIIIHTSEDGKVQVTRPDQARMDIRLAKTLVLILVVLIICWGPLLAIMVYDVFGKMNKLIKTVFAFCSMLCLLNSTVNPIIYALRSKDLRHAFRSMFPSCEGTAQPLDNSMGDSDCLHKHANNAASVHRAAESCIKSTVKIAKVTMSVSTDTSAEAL
T16 sequence (P43681 29-627 limits assumed): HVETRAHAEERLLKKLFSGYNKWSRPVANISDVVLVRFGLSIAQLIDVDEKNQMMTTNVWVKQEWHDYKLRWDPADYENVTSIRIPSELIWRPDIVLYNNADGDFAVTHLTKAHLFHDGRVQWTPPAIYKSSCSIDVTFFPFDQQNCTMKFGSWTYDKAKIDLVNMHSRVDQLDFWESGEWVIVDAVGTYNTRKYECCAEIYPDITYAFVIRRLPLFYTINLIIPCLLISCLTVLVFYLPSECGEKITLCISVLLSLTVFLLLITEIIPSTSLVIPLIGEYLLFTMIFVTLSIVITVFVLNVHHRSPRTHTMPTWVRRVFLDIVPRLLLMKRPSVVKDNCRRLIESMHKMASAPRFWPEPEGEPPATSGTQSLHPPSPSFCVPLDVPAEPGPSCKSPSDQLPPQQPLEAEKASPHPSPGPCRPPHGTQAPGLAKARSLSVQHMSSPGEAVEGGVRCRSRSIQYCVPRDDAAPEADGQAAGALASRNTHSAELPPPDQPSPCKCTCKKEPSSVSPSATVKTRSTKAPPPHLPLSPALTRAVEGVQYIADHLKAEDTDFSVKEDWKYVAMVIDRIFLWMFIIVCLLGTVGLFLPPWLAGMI
T16 sequence (P17787 26-502): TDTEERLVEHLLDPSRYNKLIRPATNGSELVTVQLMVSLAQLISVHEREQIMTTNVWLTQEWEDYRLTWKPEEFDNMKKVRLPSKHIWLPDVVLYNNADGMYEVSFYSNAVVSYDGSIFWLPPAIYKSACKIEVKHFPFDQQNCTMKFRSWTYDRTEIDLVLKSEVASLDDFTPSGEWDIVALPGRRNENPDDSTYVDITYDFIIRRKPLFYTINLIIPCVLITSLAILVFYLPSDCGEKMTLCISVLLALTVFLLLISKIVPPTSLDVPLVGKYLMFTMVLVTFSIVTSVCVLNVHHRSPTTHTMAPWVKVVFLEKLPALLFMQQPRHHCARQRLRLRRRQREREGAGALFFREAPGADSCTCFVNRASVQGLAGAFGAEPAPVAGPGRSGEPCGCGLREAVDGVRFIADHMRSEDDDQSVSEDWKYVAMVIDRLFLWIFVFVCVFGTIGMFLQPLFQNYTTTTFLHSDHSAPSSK

SMILES: CO[C@H]1C[C@@H]2CC[C@@H](C)[C@@](O)(O2)C(=O)C(=O)N2CCCC[C@H]2C(=O)O[C@H]([C@H](C)C[C@@H]2CC[C@@H](OC(=O)NCCOCCOCCOCCOCCOCCOCCOCCOCCC(=O)N3CCc4cc(Cn5nc(-c6ccc7oc(N)nc7c6)c6c(N)ncnc65)ccc4C3)[C@H](OC)C2)C[C@@H](O)[C@H](C)/C=C(\C)[C@@H](O)[C@@H](OC)C(=O)[C@H](C)C[C@H](C)/C=C/C=C/C=C/1C [compound 38]
- inhibition at 10 µM [1]: -5.4%
- inhibition at 10 µM (hERG potassium channel): -1.2%
- inhibition at 10 µM [2]: -28.9%
- % Inhibition of Control Values [3]: 13.7%
- inhibition at 10 µM [4]: -2.1%
- inhibition at 10 µM [5]: 3%
- inhibition at 10 µM [6]: 6.5%
- inhibition at 10 µM [7]: -15.7%
- inhibition at 10 µM (PDE4D2 (h)): -45.6%
- inhibition at 10 µM [8]: -3%
- inhibition at 10 µM [9]: -1.5%
- inhibition at 10 µM [10]: -3.3%
- inhibition at 10 µM [11]: -1.1%
- inhibition at 10 µM [12]: 13.1%
- inhibition at 10 µM [13]: -9.4%
- inhibition at 10 µM [14]: -4.5%
- % Inhibition of Control Values [15]: -14.9%
- inhibition at 10 µM [16]: 11.6%
- inhibition at 10 µM [17]: -8.5%
- % Inhibition of Control Values [18]: 1.0%
- inhibition at 10 µM (acetylcholinesterase (h)): -15.4%
- inhibition at 10 µM (Lck kinase (h)): 11.3%
- Eurofins Safety Screen 44 inhibition [19]: <5% inhibition (low promiscuity)
- Eurofins Safety Screen 44 result [19]: no significant inhibition
- inhibition at 10 µM [20]: 0.6%
- % Inhibition of Control Values [21]: 3.3%
- inhibition at 10 µM [22]: 12.2%
- inhibition at 10 µM [23]: 5.5%
- % Inhibition of Control Values [24]: -45.0%
- % Inhibition of Control Values [25]: -8.0%
- inhibition at 10 µM [26]: -26.1%
- inhibition at 10 µM [27]: -0.5%
- inhibition at 10 µM [28]: 0.6%

SMILES: CO[C@H]1C[C@@H]2CC[C@@H](C)[C@@](O)(O2)C(=O)C(=O)N2CCCC[C@H]2C(=O)O[C@H]([C@H](C)C[C@@H]2CC[C@@H](OC(=O)NCCOCCOCCOCCOCCOCCOCCOCCOCCC(=O)NCCS(=O)(=O)c3ccc(C(=O)N4CCOc5ccc(-c6ccc(N)nc6)cc5C4)c(C)c3F)[C@H](OC)C2)C[C@@H](O)[C@H](C)/C=C(\C)[C@@H](O)[C@@H](OC)C(=O)[C@H](C)C[C@H](C)/C=C/C=C/C=C/1C [compound 40]
- antitumor activity (tumor regressions) in NCI-H2122 CDX model (NCI-H2122 NSCLC CDX): Neither
- KiNativ Kinase Panel Data (Wnk1, Wnk2, Wnk4): -17.4
